Test results published in patent US12345641B2, “Fluorescence quenching immunoassay” (IDEXX Laboratories, Inc., priority 2020, dated 2025).

Tests used:
anti-SDMA antibody = assay: Fluorescence quenching of SDMA tracers by anti-SDMA antibody or antibody-BHQ10 (Example 34); assay type: binding; conditions: for fluorescence quenched by adding anti-SDMA antibody: antibody not conjugated to a quencher
Experimental: Solutions of anti-SDMA antibody or anti-SDMA antibody conjugated to BHQ10 (4 eq.) in phosphate buffered saline (PBS) were prepared at concentrations of 0, 0.25, 0.5, 1, 2, 4, 8, and 16 μM (antibody solution). Solutions of an SDMA fluorescent tracer (i.e., SDMA-Fl, SDMA-DFF, or SDMA-DCF) in PBS were prepared at a concentration of 100 nM (tracer solution). 50 μL of antibody solution and 50 μL of tracer solution were combined on a 96-well UV plate and incubated for 30 min. at room temperature. […] The results are depicted in FIGS. 26 and 27.

[1] = Absorption and emission spectra of fluoresceins and SDMA conjugates (Example 33); assay type: physicochemical; conditions: PBS buffer
From the text: The maximum absorption of fluorescein (Fl) in PBS buffer is at 489 nm and the maximum fluorescence emission is at 515 nm. When the fluorescein molecule is conjugated with an SDMA molecule via a —CH2NH— linker (i.e., to provide SDMA-Fl), its maximum absorption and emission are shifted to 495 nm and 525 nm, respectively. When the fluorescein molecule is substituted by fluorine at the 2′ and 7′ positions (i.e., to provide DFF) there is no any change in the maximum absorption and emission compared to unsubstituted fluorescein. When the fluorescein molecule is substituted by chloride at the 2′ and 7′ positions (i.e., to provide DCF) the maximum absorption and emission are red-shifted to 500 nm and 525 nm, respectively. Also conjugating DFF or DCF to SDMA via a —CH2NH— linker (i.e., to provide SDMA-DFF and SDMA DCF, respectively) results in the maximum absorption and emission being red-shifted. The maximum absorption and emission wavelengths of fluorescein (FL), 2′,7′-difluorofluorescien (DFF), 2′,7′-dichlorofluorescien (DCF), and their conjugates with SDMA via a —CH2NH— linker (i.e., SDMA-Fl (i.e., structure A3), SDMA-DFF, and SDMA-DCF) are listed in the Table provided below. The absorption spectra of DFF, SDMA-DFF, DCF, SDMA-DCF, Fl, and SDMA-FL are depicted in FIG. 25A and the emission spectra of SDMA-DFF, SDMA-DCF, Fl, and SDMA-FL are depicted in FIG. 25B.

[2] = test system: Cy5 conjugated antibody (Ab-Cy5, anti-T4-Mab); assay: Fluorescence quenching of T4-F by Ab-Cy5 (Example 23); assay type: binding
Experimental: T4-F was dissolved in DMSO (1 mM) and diluted with PBS to provide a stock solution (4 μM). A series of PBS solutions of Cy5 conjugated antibody (Ab-Cy5, made as in Example 12) having Ab-Cy5 concentrations ranging from 0 to 400 nM were prepared by serial dilution. In the wells of a 96 well black assay plate was combined T4-F in PBS (5 μL) and a serially diluted Ab-Cy5 solution (95 μL) and the plate shaken for 30 min at room temperature.

[3] = test system: anti-sulfadimethoxine monoclonal antibody; assay: Fluorescence of SDM-F or SDM-Su-F with anti-sulfadimethoxine monoclonal antibody (Example 26); assay type: binding
Experimental: SDM-F or SDM-Su-F in PBS (400 nM, 100 μL) was mixed with anti-sulfadimethoxine monoclonal antibody (400 nM, 100 μL, commercially available from Genway Biotech of San Diego, CA) in the absence of and the presence of sulfadimethoxine (SDM) (400 nM). The resulting solutions were incubated at room temperature for 5 min and the fluorescence intensity then measured.

[4] = test system: anti-penicillin polyclonal antibody; assay: Fluorescence of beta lactam-fluorescein conjugates with anti-penicillin antibody (Example 25); assay type: binding; conditions: tracer and antibody 200 nM
Experimental: Beta lactam antibiotics conjugated to fluorescein (i.e., AMO-FITC, AMO-F, AMP-F, and CEF-F) in PBS (400 nM, 100 μL) were mixed with either anti-penicillin or anti-cefotaxime polyclonal antibody (400 nM, 100 μL, commercially available from Novus Biologicals, LLC of Centennial, CO) in the absence of and in the presence of free beta-lactam antibiotic (ampicillin (400 nM) was added to AMP-F and cefotaxime (400 nM) was added to CEF-F) in a 96 well black assay plate. […] The solutions were incubated at room temperature for 5 min and the fluorescence intensity measured.

anti-T4 antibody = assay: Maximum percentage fluorescence quenching of T2-F, T3-F, T4-F by anti-T4 antibody with and without quencher label (Example 27 table); assay type: binding
Experimental: In another experiment, tracer T2-F, T3-F, or T4-F was dissolved in DMSO to provide a DMSO solution at a tracer concentration of 1 mM. The DMSO solution was then diluted with phosphate buffered saline (“PBS”) to provide a stock solution of each tracer at a concentration of 10 μM. Monoclonal anti-T4-Mab or anti-T4-Mab conjugated to a quencher (Cy3-Ab, IRdyeQC1-Ab, Cy5-Ab, BHQ1-Ab) were serially diluted in PBS to provide solutions having an Anti-T4-Mab or anti-T4-Mab conjugated to quencher at concentration ranging from 0 to 2 μM. In a 96 well black assay plate containing the serially diluted Anti-T4-Mab or anti-T4-Mab conjugated to quencher (95 μL) was added the tracer T2-F, T3-F, or T4-F solution (5 μL), mixed well, and incubated for 30 min and the fluorescence intensities then recorded at an excitation wavelength of 485 nm and an emission wavelength of 520 nm. The results of maximum percentage fluorescence quenching for different tracers and quencher-modified antibodies are provided in the following Table: […]

antibody to SDMA = assay: Fluorescence decrease of tracer A3 on complexing with anti-SDMA antibody conjugated to BHQ10 (FIG. 23); assay type: binding
From the text: The decrease in fluorescence of a fluorescent tracer when it forms a complex with a binding partner that is conjugated to a quencher is a function of the equivalents of quencher molecules that are conjugated to the binding partner. The more quencher molecules conjugated to the binding partner, the greater the decrease in fluorescence. This is depicted in FIG. 23 as a plot of fluorescence vs. ratio of antibody:fluorescent tracer for antibody that is conjugated to 2, 4, 6, and 8 BHQ10 quencher molecules.

[5] = test system: Monoclonal anti-NT-proBNP antibody (ADX-15 Mab); assay: Fluorescence quenching of canine NT-proBNP peptide-Fl/DFF conjugates by anti-NT-proBNP Mab and Ab-BHQ10 (Example 52); assay type: binding; conditions: No = No Quenching
Experimental: NT-proBNP peptide-fluorescein (Fl) or -difluorofluorescein (DFF) conjugates were dissolved in DMSO (0.4 mM) and diluted with PBS to provide a stock solution (100 nM). Monoclonal anti-NT-proBNP antibody (ADX-15 Mab, IDEXX Laboratories Inc. of Westbrook, ME) (6.84 mg/ml) was serially diluted in PBS buffer to provide solutions having an antibody concentration ranging from 0 to 800 nM in PBS. In a 96 well black assay plate containing the serially diluted antibody solution (50 μL) was added the P1-Fl or P1-DFF, or other peptide-Fl or Peptide-DFF solution (50 μL), mixed well, incubated for 30 min and the fluorescence intensities recorded (excitation at 485 nm and emission at 520 nm). The results are provided in FIG. 47, FIG. 48, and Table 2.

anti-NT-proBNP-Mab = assay: Canine NT-proBNP peptide P1 dose response in PBS and serum (Example 52); assay type: binding
Experimental: A mixture of NT-proBNP P1-Fl or P1-DFF in PBS (100 nM, 25 μL) and anti-NT-proBNP-Mab in PBS (100 nM, […]) were incubated at room temperature for 30 min in the wells of a 96 well black assay plate. A series of NT-proBNP peptide P1 standard solutions in PBS or charcoal stripped serum having peptide or protein concentrations ranging from 0 to 320 nM (50 μL) were then added to the mixtures of P1-Fl or P1-DFF and anti-NT-proBNP Mab in PBS. The plate was then incubated for 30 min at room temperature and the fluorescence intensities recorded at excitation at 485 nm and emission at 520 nm. The results are shown in FIG. 49, FIG. 50, FIG. 51, and FIG. 52.

anti-NT-proBNP Mab = assay: Canine NT-proBNP full length protein dose response (Example 52); assay type: binding
Experimental: A mixture of NT-proBNP P1-Fl or P1-DFF in PBS (200 nM, 10 μL) and anti-NT-proBNP Mab in PBS (200 nM, 10 μL) were incubated at room temperature for 30 min in the wells of a 96 well black assay plate. A series of NT-proBNP peptide P1 standard solutions in PBS having NT-proBNP full length protein (lyophilized powder synthesized by New England Biolabs of Ipswich, MA) at concentrations ranging from 0 to 320 nM (80 μL) were then added to the mixtures of P1-Fl or P1-DFF and anti-NT-proBNP Mab in PBS. The plate was then incubated for 30 min at room temperature and the fluorescence intensities recorded at an excitation of 485 nm and an emission of 520 nm.

In the case of `CNC(=NCCCC(N)C(=O)NCc1c(O)c(F)cc2c(-c3ccccc3C(=O)O)c3cc(F)c(=O)cc-3oc12)NC` (stereo not shown) [SDMA-DFF], the “quenching efficiency in comparison with SDMA-Fl” value (anti-SDMA antibody; anti-SDMA antibody conjugated to BHQ10 (4 eq.)) is reported as “slightly greater”, the “fluorescence quenched by adding anti-SDMA antibody” value (anti-SDMA antibody) is reported as “about 50%” and the “Max Absorption” value [1] is reported as 437 nm. The “Max Emision” value [1] was 525 nm.

For `CCN1/C(=C/C=C/C=C/C2=[N+](CCCCCC(=O)O)c3ccc(S(=O)(=O)O)cc3C2(C)C)C(C)(C)c2cc(S(=O)(=O)[O-])ccc21` [Cy5, reference compound], the “quenching of T4-F fluorescence by Cy5 alone (not conjugated to Anti-T4-Mab)” value [2] was “did not quench fluorescence”.

For `COc1cc(NS(=O)(=O)c2ccc(NCc3c(O)ccc4c(-c5ccccc5C(=O)O)c5ccc(=O)cc-5oc34)cc2)nc(OC)n1` [SDM-F, Sulfadimethoxine-Fluorescein], the “amount of quenching compared to SDM-Su-F” value [3] was “greater amount of quenching” and the “fluorescence quenching by anti-sulfadimethoxine monoclonal antibody” value [3] was “quenched”.

For `CC1(C)SC2C(NC(=O)C(NC(=S)Nc3ccc(-c4c5ccc(=O)cc-5oc5cc(O)ccc45)c(C(=O)O)c3)c3ccc(O)cc3)C(=O)N2C1C(=O)O` (stereo not shown) [AMO-FITC], the “fluorescence quenching by anti-penicillin antibody” value [4] was “not quenched”.

In the case of `CC1(C)SC2C(NC(=O)C(NCc3c(O)ccc4c(-c5ccccc5C(=O)O)c5ccc(=O)cc-5oc34)c3ccccc3)C(=O)N2C1C(=O)O` (stereo not shown) [AMP-F, Ampicillin-Fluorescein], the “fluorescence quenching by anti-penicillin antibody” value [4] is reported as “quenched”.

With `O=C(O)c1ccccc1-c1c2ccc(=O)cc-2oc2c(CNC(Cc3cc(I)c(Oc4cc(I)c(O)c(I)c4)c(I)c3)C(=O)O)c(O)ccc12` (stereo not shown) [T4-F] the quenching efficiency ([2]; ratio of T4-F: Ab-Cy5 of about 1:1) was “about 70%”, the “Percentage of fluorescence quenching, BHQ1-Ab” value (anti-T4 antibody; anti-T4-Mab conjugated to BHQ1) was “No” and the “Percentage of fluorescence quenching, Cy5-Ab” value (anti-T4 antibody; anti-T4-Mab conjugated to Cy5) was 31%. The “Percentage of fluorescence quenching, Ab” value (anti-T4 antibody; anti-T4-Mab without quencher) was “No”.

For `C/N=C(\NC)NCCC[C@@H](N)C(=O)NCc1c(O)ccc2c(-c3ccccc3C(=O)O)c3ccc(=O)cc-3oc12` (stereo in doubt) [SDMA-Fl], the “maximum decrease in fluorescence” value (antibody to SDMA; antibody conjugated to 2 equivalents of BHQ10) was “about 50%”, the “maximum decrease in fluorescence” value (antibody to SDMA; antibody conjugated to 8 equivalents of BHQ10) was “about 70%” and the “fluorescence quenched by adding anti-SDMA antibody” value (anti-SDMA antibody) was “about 30%”. For the same molecule, the “Max Absorption” value [1] was 495 nm and the “Max Emision” value [1] was 525 nm.

With `COc1cc(NS(=O)(=O)c2ccc(NC(=O)CCC(=O)NCc3c(O)ccc4c(-c5ccccc5C(=O)O)c5ccc(=O)cc-5oc34)cc2)nc(OC)n1` [SDM-Su-F, Sulfadimethoxine-Succinic-Fluorescein] the “fluorescence quenching by anti-sulfadimethoxine monoclonal antibody” value [3] was “quenched”.

In the case of `CC1(C)SC2C(NC(=O)C(NCc3c(O)ccc4c(-c5ccccc5C(=O)O)c5ccc(=O)cc-5oc34)c3ccc(O)cc3)C(=O)N2C1C(=O)O` (stereo not shown) [AMO-F, Amoxicillin-Fluorescein], the “fluorescence quenching by anti-penicillin antibody” value [4] is reported as “quenched”.

In the case of “AEQLALEPLHRS [P1, canine NT-proBNP peptide]”, the “Percentage Fluorescence Quenching, DFF Conjugate, Ab-BHQ10” value ([5]; NT-proBNP peptide-difluorofluorescein conjugate, mAb-BHQ10, molar ratio of 1:1) is reported as 64.7%, the “Percentage Fluorescence Quenching, DFF Conjugate, Ab” value ([5]; NT-proBNP peptide-difluorofluorescein conjugate, molar ratio of 1:1) is reported as 63.3% and the “Percentage Fluorescence Quenching, F1 Conjugate, Ab” value ([5]; NT-proBNP peptide-fluorescein conjugate, Ab/Conjugate molar ratio of 1:1) is reported as 39.4%. For the same molecule, the “Percentage Fluorescence Quenching, F1 Conjugate, Ab-BHQ10” value ([5]; NT-proBNP peptide-fluorescein conjugate, mAb-BHQ10, molar ratio of 1:1) was 40.2%, the “fluorescence intensity as a function of NT-proBNP peptide P1 concentration” value (anti-NT-proBNP-Mab; PBS, mixture of P1-Fl or P1-DFF with Ab or Ab-BHQ10) was “a dose response was observed” and the “dose response of P1 peptide in serum” value (anti-NT-proBNP-Mab; charcoal stripped serum, P1-Fl or P1-DFF) was “produced a dose response”.

B1: full length NT-proBNP protein: canine NT-proBNP, SEQ ID NO: 14 (protein, listed as Canis familiaris)
chain: HPLGGRSPASEASEASEASGLWAVQELLGRLKDAVSELQAEQLALEPLHRSHSPAEAPEAGGTPRGVLAPHDSVLQALR
With B1 the “dose response of full length NT-proBNP spiked into charcoal stripped serum” value (anti-NT-proBNP Mab; P1-Fl/Ab or P1-DFF/Ab) was “dose response was also observed” and the “fluorescence intensity as a function of full length NT-proBNP protein concentration” value (anti-NT-proBNP Mab; PBS, P1-Fl/Ab or P1-DFF/Ab at 1:1) was “a dose response was observed”.
